Test results reported in patent publication US11787816B2, “Chlorin compound, and preparation and use thereof” (Southwest Jiaotong University, priority 2021, dated 2023).

Tested on: murine mammary carcinoma 4T1 cells
Test: Photosensitizer-mediated PDT, in vitro proliferation (MTT), 4T1
Type: cell-based

| Substance | cell viability (%) (1 μg/mL, 660 nm, 2 J/cm^2) | cell viability (%) (1 μg/mL, 660 nm, 4 J/cm^2) | cell viability (%) (1 μg/mL, 660 nm, 8 J/cm^2) | cell viability (%) (1 μg/mL, no light) | cell viability (%) (2 μg/mL, 660 nm, 2 J/cm^2) | cell viability (%) (2 μg/mL, 660 nm, 4 J/cm^2) | cell viability (%) (2 μg/mL, 660 nm, 8 J/cm^2) | cell viability (%) (5 μg/mL, 660 nm, 2 J/cm^2) | cell viability (%) (5 μg/mL, 660 nm, 4 J/cm^2) | cell viability (%) (5 μg/mL, 660 nm, 8 J/cm^2) | cell viability (%) (5 μg/mL, no light) | cell viability (%) (10 μg/mL, 660 nm, 2 J/cm^2) | cell viability (%) (10 μg/mL, 660 nm, 4 J/cm^2) | cell viability (%) (10 μg/mL, 660 nm, 8 J/cm^2) | cell viability (%) (10 μg/mL, no light) | cell viability (%) (2 μg/mL, no light) |
| --- | --- | --- | --- | --- | --- | --- | --- | --- | --- | --- | --- | --- | --- | --- | --- | --- |
| 3-n-hexylaminomethyl-3-devinyl-chlorin e4 disodium salt [CEFN] | 97 ± 2 | 89 ± 3 | 81 ± 3 | 97 ± 3 | 79 ± 3 | 52 ± 2 | 39 ± 2 | 59 ± 2 | 24 ± 3 | 18 ± 1 | 98 ± 2 | 38 ± 3 | 10 ± 2 | 8 ± 3 | 101 ± 3 | – |
| 3-hexoxymethyl-3-devinyl-chlorin e4 disodium salt [CEFO] | 86 ± 3 | 84 ± 4 | 78 ± 3 | 103 ± 2 | 67 ± 3 | 41 ± 3 | 39 ± 2 | 38 ± 2 | 21 ± 2 | 19 ± 42 | 99 ± 2 | 29 ± 1 | 5 ± 1 | 3 ± 1 | 100 ± 3 | 103 ± 2 |
